Here are results for one compound from PMC11304236, “A Novel Drug Candidate for Sepsis Targeting Heparanase by Inhibiting Cytokine Storm” (Advanced Science, 2024).

For one data set, the target named is T1, HPA (Homo sapiens, UniProt Q9Y251).
T1 sequence (Q9Y251 158-543 limits assumed): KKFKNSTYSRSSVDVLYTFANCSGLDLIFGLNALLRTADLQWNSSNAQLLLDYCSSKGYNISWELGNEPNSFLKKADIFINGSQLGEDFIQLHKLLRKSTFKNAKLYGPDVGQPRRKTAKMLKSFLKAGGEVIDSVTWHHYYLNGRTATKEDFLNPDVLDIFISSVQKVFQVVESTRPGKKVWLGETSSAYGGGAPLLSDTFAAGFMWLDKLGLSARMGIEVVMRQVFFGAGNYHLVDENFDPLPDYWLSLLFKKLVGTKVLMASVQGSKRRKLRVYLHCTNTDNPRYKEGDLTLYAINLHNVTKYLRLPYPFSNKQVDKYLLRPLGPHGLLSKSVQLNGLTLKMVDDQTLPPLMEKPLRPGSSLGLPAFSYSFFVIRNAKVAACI
T1 sequence (Q9Y251 36-109 limits assumed): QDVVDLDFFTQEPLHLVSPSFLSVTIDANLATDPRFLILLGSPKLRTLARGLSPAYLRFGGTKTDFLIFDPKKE
Nature of the data set: Homogeneous time-resolved fluorescence (HTRF) HPA inhibition in vitro. It is filed as biochemical. As for the experimental part: Active HPA was diluted with Buffer A to 120 ng mL^−1, biot‐HS‐K was diluted with Buffer B (pH 5.5) to 1.4 ng mL^−1, and SA‐d2 was diluted with Buffer C (pH 7.5) to 1 µg mL^−1, CV122 samples were diluted with Buffer A to different concentration gradients. Add 4 µL of sample solution and 3 µL of HPA solution or Buffer A to the micro‐96‐well plate. After incubating at 37 °C for 10 min, the enzyme reaction was started by adding 3 µL of biot‐HS‐K and incubating at 37 °C for 30 min. Then add 10 µL of SA‐d2 solution or Buffer C. After incubating for 15 min at room temperature, the HTRF signal was detected by a microplate reader, which was excited at 384 nm and emitted at 620 nm and 665 nm. The fluorescence intensity ratio of 665 nm/620 nm was used to calculate the average energy transfer rate (ΔF%) of each sample. The positive control system composed of biot‐HS‐K and SA‐d2 should produce the largest ΔF%, while the background fluorescence intensity of the negative control (biot‐HS‐K) should produce the smallest ΔF%.^[ [45] ^]
(TR-FRET usually uses a lanthanide donor and a delayed reading to cut background.)

In the next data set the test system is TNF-α, IL-6, IL-1β. Put plainly: Cytokine ELISA in serum and organs of LPS-induced septic mice. Type of data set: in vivo, mouse. The procedure:
For LPS‐induced sepsis model experiments, twenty male C57BL/6J mice were randomly divided into four groups (n = 5 in each group). Mice in group 1 were injected with 0.9% NaCl, while mice in groups 2–4 were injected intraperitoneally with LPS (20 mg kg^−1). After 30 min, mice in group 3 were injected with 40 mg kg^−1 CV122 and mice in group 4 were injected with 40 mg kg^−1 Suramin. After 3 h, blood was taken and the lungs, liver, spleen, kidney heart, and brain were taken. For CLP experiments, the mice were euthanized 24 h after the establishment of the sepsis model. Blood samples were collected from the eyeballs of mice, the lungs were taken. These organs were ground at 0.1 g mL^−1 in PBS, centrifuged and the supernatant collected. Serum and organ tissue supernatants were used to detect cytokine levels using the mouse TNF‐α, IL‐6, IL‐1β ELISA MAXTM Deluxe Set.
A general note: ELISA stands for enzyme-linked immunosorbent assay.

Another data set has as its system LPS-induced septic mice. Put plainly: Treadmill vitality test of LPS-induced septic mice. The settings on record: LPS-treated mice. It is filed as in vivo, mouse. From the text:
To further assess the protective effect of CV122 in LPS‐induced septic mice, we assessed the vitality of the mice with or without CV122 treatment by treadmill (Figure 2I).

Data set [1] has as its system M1 macrophages (F4/80+CD86+). Put plainly: Flow cytometry of M1 macrophages in organs of LPS-induced septic mice. Type of data set: in vivo, mouse. The note with it: 12 h after LPS 40 mg/kg i.p. The procedure: (§1) Each group of mice was euthanized 24 h after LPS injection, spleens were harvested, red blood cells were lysed to detect splenocyte apoptosis, and the ratio of CD3^+CD4^+ T cells, CD3^+CD8^+ T cells, CD3^−CD19^+ B cells in spleen cells and lymph nodes quantified. Antibodies were: FITC‐Annexin V and PI; APC‐CD3, FITC‐CD4, PE‐CD8a, and PE‐CD19. Each group of mice was euthanized 12 h after LPS injection, Lung, kidney, and spleens were harvested, red blood cells were lysed to detect the ratio of macrophages in multiple organs, Antibodies were: FITC anti‐mouse F4/80; APC anti‐mouse CD86. Flow cytometry was used to quantify the adhesion molecules ICAM‐1 and VCAM‐1 on the surface of RAW264.7 cells and HUVECs. CV122 (50 µM) was incubated with the cells for 3 h, LPS (5 µg mL^−1) and TNF‐α (20 ng mL^−1) were used to stimulate the cells for 1 h, and the cells were collected. FITC anti‐mouse CD54 antibody and AF647 anti‐mouse CD106 antibody were incubated for 30 min at room temperature in the dark, PBS was added at 1000 rpm, and the cells were centrifuged for 7 min. A 200‐mesh copper mesh was used to filter the cells into a flow cytometer, and a flow cytometer (BD Biosciences) was used for detection.
Figure S6. M1 macrophages in multiple organs of LPS-induced septic mice. […] All results are expressed as mean ± SD (n = 3), *p < 0.05,**p < 0.01, ***p < 0.001, ****p < 0.0001; ns, not significant. […]

The test system of another data set is ICAM-1 and VCAM-1. Nature of the data set: ICAM-1 and VCAM-1 on TNF-α-stimulated HUVECs by flow cytometry. It is filed as cell-based, human. The settings on record: CV122 50 µM 3 h, TNF-α 20 ng mL−1 1 h. The procedure:
as §1
(In general: Flow cytometry measures light scatter and fluorescence of single cells or particles in a stream.)

The subject of another data set is CCHFV. It is filed as in vivo, mouse.
Another data set has as its system HUVECs. Put plainly: Cell survival assay (CCK-8) in HUVECs. The note with it: 50 to 200 µM. It is filed as cell-based, human.
In another data set the test system is RAW264.7 macrophages. Nature of the data set: Cell survival assay (CCK-8) in RAW264.7 macrophages. The settings on record: 50 to 200 µM.

Take `COC1OC(COS(=O)(=O)O)C(OC2OC(C(=O)O)C(OC3OC(COS(=O)(=O)O)C(OC4OC(C(=O)O)C(OC5OC(COS(=O)(=O)O)C(O)C(O)C5NS(=O)(=O)O)C(OS(=O)(=O)O)C4O)C(OS(=O)(=O)O)C3NS(=O)(=O)O)C(O)C2OS(=O)(=O)O)C(O)C1NS(=O)(=O)O` (stereo not shown) [CV122]: the “IC50 rank in HPA inhibition screening” value against HPA (CV114-CV123 compared with fondaparinux, ****p < 0.0001) is “lowest IC50 values”. On HPA (HTRF, in vitro), this compound yielded an IC50 of 2970 nM. Moreover, the “TNF-α, IL-6 and IL-1β levels in serum and lungs” value with TNF-α, IL-6, IL-1β (40 mg kg−1, 30 min after LPS 20 mg kg−1 i.p., 3 h after LPS, vs LPS group) is “significantly suppressed”. Further, the “TNF-α, IL-6 and IL-1β in tissue extracts of brains, hearts, livers, kidneys and spleens” value in the data set with TNF-α, IL-6, IL-1β (40 mg kg−1, 3 h after LPS) is given as “significantly inhibited the secretion of proinflammatory cytokines in these organs to a greater extent than Suramin”. Besides, the “TNF-α levels in serum” value in the data set with TNF-α, IL-6, IL-1β (candidate screening in LPS-induced septic mouse model (Figure 1C,D)) was “significantly decreasing”. For the same compound, in the data set on LPS-induced septic mice, the “electric shocks needed in the first 100 m” value was “reduced the electric shocks needed in the first 100 m”; the “running distance and time to exhaustion” value is “significantly increased the running distance and extended the time to exhaustion”; the “total electric shocks until exhaustion” value is given as “obviously increased the total electric shocks until exhaustion”. In addition, the “percentage of M1 macrophages in kidneys and spleen” value in data set [1] is given as “significantly inhibited the percentage of M1 macrophages”. In addition, the “percentage of M1 macrophages (F4/80+CD86+) in the lung” value in data set [1] (**p < 0.01) is given as “significantly reduced by CV122”. The “ICAM-1 and VCAM-1 expression” value in the data set on ICAM-1 and VCAM-1 was “reversed after CV122 treatment”. The “spleen pathological damage (H&E)” value in the data set on CCHFV (7 d after infection) was “spleen congestion and edema were slightly reduced”. In addition, the body weight result in the data set on CCHFV (CCHFV-infected IFNAR−/− mice) is reported as “slightly higher body weights”. Further, the survival rate with CCHFV (CV122 20 mg kg−1 s.c. at 2, 3, 4 and 5 days after infection, IFNAR−/− mice, 8 day or longer observation, control 20%) is 80%. For the same compound, in the data set on HUVECs, the “effect on survival of HUVECs” value was “no significant inhibitory effect”. The “effect on survival of RAW264.7 macrophages” value in the data set on RAW264.7 macrophages is recorded as “no significant inhibitory effect”.

In general, IC50 refers to the midpoint of a concentration-inhibition curve. A higher IC50 goes with lower potency.
